Results from patent US4303664A, “Novel penicillin derivatives containing a coumarin nucleus and medicines containing the same” (Teijin Limited, priority 1978, dated 1981).
≈ marks a conversion by molar mass, not a printed value. Like-named read-outs stand apart in the source and are kept apart here.

Experiments:
Format in all cases: cell-based
[1] = tested on: Staphylococcus aureus 209-p; experiment: Bactericidal test (MIC), Staphylococcus aureus 209-p; details: (1) Staphylococcus aureus 209-p
Text: (§1) Results of bactericidal tests (MIC, r/ml) on the penicillin derivatives of this invention prepared in the above examples are shown in the following table.

[2] = tested on: Staphylococcus aureus 1248; experiment: Bactericidal test (MIC), Staphylococcus aureus 1248
Text: as §1

Bacillus subtilis = experiment: Bactericidal test (MIC), Bacillus subtilis; details: (3) Bacillus subtilis
Text: as §1

[3] = tested on: Salmonella typhimurium G-20; experiment: Bactericidal test (MIC), Salmonella typhimurium G-20; details: Salmonella enterica; (4) Salmonella typhimurium G-20
Text: as §1

[4] = tested on: Escherichia Coli NIHJ JC-2; experiment: Bactericidal test (MIC), Escherichia Coli NIHJ JC-2; details: NIHJJC2; (5) Escherichia Coli NIHJ JC-2
Text: as §1

[5] = tested on: Klebsiella neumoniae ATCC10031; experiment: Bactericidal test (MIC), Klebsiella neumoniae ATCC10031
Text: as §1

Enterobactor cloacae 147 = experiment: Bactericidal test (MIC), Enterobactor cloacae 147; details: (7) Enterobactor cloacae 147
Text: as §1

[6] = tested on: Enterobacter cloacae IF012937; experiment: Bactericidal test (MIC), Enterobacter cloacae IF012937; details: (8) Enterobacter cloacae IF012937
Text: as §1

Morganella var. G-2 = experiment: Bactericidal test (MIC), Morganella var. G-2; details: VAR.G2
Text: as §1

Rettgerella var. Tid-21 = experiment: Bactericidal test (MIC), Rettgerella var. Tid-21
Text: as §1

Serratia G-18 = experiment: Bactericidal test (MIC), Serratia G-18; details: G18
Text: as §1

[7] = tested on: Pseudomonas aeruginosa IFO-3080; experiment: Bactericidal test (MIC), Pseudomonas aeruginosa IFO-3080; details: IFO3080
Text: as §1

[8] = tested on: Pseudomonas aeruginosa 0-37; experiment: Bactericidal test (MIC), Pseudomonas aeruginosa 0-37; details: 037; (13) Pseudomonas aeruginosa 0-37
Text: as §1

[9] = tested on: Pseudomonas aeruginosa Tid-53; experiment: Bactericidal test (MIC), Pseudomonas aeruginosa Tid-53; details: TID53; (14) Pseudomonas aeruginosa Tid-53
Text: as §1

[10] = tested on: Pseudomonas aeruginosa GN-315; experiment: Bactericidal test (MIC), Pseudomonas aeruginosa GN-315; details: GN315; (15) Pseudomonas aeruginosa GN-315
Text: as §1

[11] = tested on: Pseudomonas aeruginosa 130; experiment: Bactericidal test (MIC), Pseudomonas aeruginosa 130; details: (16) Pseudomonas aeruginosa 130
Text: as §1

[12] = (2) Staphylococcus aureus 1248, read-out: MIC
[13] = (6) Klebsiella neumoniae ATCC10031, read-out: MIC
[14] = (9) Morganella var. G-2, read-out: MIC
[15] = (10) Rettgerella var. Tid-21, read-out: MIC
[16] = (11) Serratia G-18, read-out: MIC
[17] = (12) Pseudomonas aeruginosa IFO-3080, read-out: MIC

| SMILES | MIC [1] | MIC [2, 12] | MIC (Bacillus subtilis) | MIC [3] | MIC [4] | MIC [5, 13] | MIC (Enterobactor cloacae 147) | MIC [6] | MIC (Morganella var. G-2; [14]) | MIC (Rettgerella var. Tid-21; [15]) | MIC (Serratia G-18; [16]) | MIC [7, 17] | MIC [8] | MIC [9] | MIC [10] | MIC [11] | other results |
| --- | --- | --- | --- | --- | --- | --- | --- | --- | --- | --- | --- | --- | --- | --- | --- | --- | --- |
| CC1(C)S[C@@H]2[C@H](NC(=O)[C@H](NC(=O)c3cc4ccc(O)cc4oc3=O)c3ccccc3)C(=O)N2[C@H]1C(=O)O [Example 11, D(-)-α-(7-Hydroxycoumarin-3-carbonamido)benzylpenicillin] | < 0.4 µg/mL | 6.25 µg/mL (≈ 11.6 µM) | < 0.4 µg/mL | < 0.4 µg/mL | < 0.4 µg/mL | 12.5 µg/mL (≈ 23.3 µM) | 12.5 µg/mL (≈ 23.3 µM) | 12.5 µg/mL (≈ 23.3 µM) | 50 µg/mL (≈ 93 µM) | 25 µg/mL (≈ 46.5 µM) | 200 µg/mL (≈ 372 µM) | 3.13 µg/mL (≈ 5.82 µM) | 100 µg/mL (≈ 186 µM) | 25 µg/mL (≈ 46.5 µM) | 12.5 µg/mL (≈ 23.3 µM) | 6.25 µg/mL (≈ 11.6 µM) |  |
| CC1(C)S[C@@H]2[C@H](NC(=O)[C@H](NC(=O)c3cc4cccc(O)c4oc3=O)c3ccccc3)C(=O)N2[C@H]1C(=O)O [Example 26, D(-)-α-(8-Hydroxycoumarin-3-carbonamido)benzylpenicillin] | < 0.4 µg/mL |  | < 0.4 µg/mL |  | < 0.4 µg/mL |  | 3.13 µg/mL (≈ 5.82 µM) | 12.5 µg/mL (≈ 23.3 µM) | 1.56 µg/mL (≈ 2.9 µM) | 1.56 µg/mL (≈ 2.9 µM) | 12.5 µg/mL (≈ 23.3 µM) | < 0.4 µg/mL | 50 µg/mL (≈ 93 µM) | 6.25 µg/mL (≈ 11.6 µM) | 1.56 µg/mL (≈ 2.9 µM) | 1.56 µg/mL (≈ 2.9 µM) |  |
| CCOc1ccc2oc(=O)c(C(=O)N[C@@H](C(=O)N[C@@H]3C(=O)N4[C@@H]3SC(C)(C)[C@@H]4C(=O)O)c3ccccc3)cc2c1 [Example 23, D-α-(6-Ethoxycoumarin-3-carbonamido)benzylpenicillin] | < 0.4 µg/mL |  |  |  | < 0.4 µg/mL | 6.25 µg/mL (≈ 11.1 µM) | 1.56 µg/mL (≈ 2.76 µM) | 6.25 µg/mL (≈ 11.1 µM) | 3.13 µg/mL (≈ 5.53 µM) | 3.13 µg/mL (≈ 5.53 µM) | 25 µg/mL (≈ 44.2 µM) | 0.8 µg/mL (≈ 1.41 µM) | 12.5 µg/mL (≈ 22.1 µM) | 3.13 µg/mL (≈ 5.53 µM) | 3.13 µg/mL (≈ 5.53 µM) | 1.56 µg/mL (≈ 2.76 µM) |  |
| CC1(C)S[C@@H]2[C@H](NC(=O)[C@H](N)c3ccccc3)C(=O)N2[C@H]1C(=O)O [Ampicillin, ampicillin, reference compound] | < 0.8 µg/mL | < 0.8 µg/mL | < 0.8 µg/mL | < 0.8 µg/mL | < 0.8 µg/mL |  | 400 µg/mL (≈ 1140 µM) |  |  |  | 25 µg/mL (≈ 71.5 µM) | 200 µg/mL (≈ 572 µM) | > 400 µg/mL | > 400 µg/mL | > 400 µg/mL | > 400 µg/mL | MIC ([5]; Klebsiella, ATCC10031): 12.5 µg/mL (≈ 35.8 µM); MIC (Morganella var. G-2; Morganella): 12.5 µg/mL (≈ 35.8 µM); MIC (Rettgerella var. Tid-21): 6.25 µg/mL (≈ 17.9 µM) |
| COc1cccc2oc(=O)c(C(=O)N[C@@H](C(=O)N[C@@H]3C(=O)N4[C@@H]3SC(C)(C)[C@@H]4C(=O)O)c3ccccc3)cc12 [Example 24, D-α-(5-Methoxycoumarin-3-carbonamido)benzylpenicillin] | < 0.4 µg/mL |  |  |  | < 0.4 µg/mL |  | 1.56 µg/mL (≈ 2.83 µM) | 6.25 µg/mL (≈ 11.3 µM) | 3.13 µg/mL (≈ 5.67 µM) | 3.13 µg/mL (≈ 5.67 µM) | 25 µg/mL (≈ 45.3 µM) | 0.8 µg/mL (≈ 1.45 µM) | 12.5 µg/mL (≈ 22.7 µM) | 3.13 µg/mL (≈ 5.67 µM) | 3.13 µg/mL (≈ 5.67 µM) | 1.56 µg/mL (≈ 2.83 µM) |  |
| COc1cc(OC)c2cc(C(=O)N[C@@H](C(=O)N[C@@H]3C(=O)N4[C@@H]3SC(C)(C)[C@@H]4C(=O)O)c3ccccc3)c(=O)oc2c1 [Example 22, D-α-(5,7-Dimethoxycoumarin-3-carbonamido)benzylpenicillin] | < 0.4 µg/mL | 3.13 µg/mL (≈ 5.38 µM) |  |  | < 0.4 µg/mL | 1.56 µg/mL (≈ 2.68 µM) | 12.5 µg/mL (≈ 21.5 µM) | 50 µg/mL (≈ 86 µM) | 50 µg/mL (≈ 86 µM) | 25 µg/mL (≈ 43 µM) | 100 µg/mL (≈ 172 µM) | 1.56 µg/mL (≈ 2.68 µM) | 50 µg/mL (≈ 86 µM) | 6.25 µg/mL (≈ 10.7 µM) | 6.25 µg/mL (≈ 10.7 µM) | 3.13 µg/mL (≈ 5.38 µM) |  |
| CC1(C)S[C@@H]2[C@H](NC(=O)C(C(=O)O)c3ccccc3)C(=O)N2[C@H]1C(=O)O (some centres unmarked) [Carbenicillin, carbenicillin, reference compound] | < 0.8 µg/mL |  | < 0.8 µg/mL | < 0.8 µg/mL | < 0.8 µg/mL | 50 µg/mL (≈ 132 µM) | 200 µg/mL (≈ 529 µM) |  | 1.56 µg/mL (≈ 4.12 µM) | 25 µg/mL (≈ 66.1 µM) |  |  | > 400 µg/mL | 200 µg/mL (≈ 529 µM) | 100 µg/mL (≈ 264 µM) | 25 µg/mL (≈ 66.1 µM) | MIC ([2]; Staphylococcus aureus, 1248): 3.13 µg/mL (≈ 8.27 µM); MIC (Serratia G-18; Serratia): 6.25 µg/mL (≈ 16.5 µM); MIC ([7]; Pseudomonas aeruginosa): 12.5 µg/mL (≈ 33 µM) |
